# From US10035797B2, “Fused amino pyridine as HSP90 inhibitors” (Curis, Inc., priority 2007, dated 2018)
# Target: HSP90 (Homo sapiens (Human), UniProt P07900)
# Assay: HSP90 competition binding (fluorescence polarization) assay
# Settings: FITC labeled GM, 24 hours at 4° C.
# Source text: (b) HSP90 Competition Binding (Fluorescence Polarization) Assay.
# A fluorescein isothiocyanate (FITC) labeled GM was purchase from InvivoGen (ant-fgl-1). The interaction between HSP90 and labeled GM forms the basis for the fluorescence polarization assay. A free and fast-tumbling FITC labeled GM emits random light with respect to the plane of polarization plane of excited light, resulting in a lower polarization degree (mP) value. When GM is bound to HSP90, the complex tumble slower and the emitted light is polarized, resulting in a higher mP value. […] The assay buffer contained 20 mM HEPES (pH 7.3), 50 mM KCl, 1 mM DTT, 50 mM MgCl2, 20 mM Na2MoO4, 0.01% NP40 with 0.1 mg/ml bovine gamma-globulin.
smiles,measurement,value
"CC(C)(C)CNCCCn1c(Sc2cc3c(cc2I)OCO3)nc2c(N)nccc21 [Compound 56, 2-(6-iodobenzo[d][1,3]dioxol-5-ylthio)-1-(3-(neopentylamino)propyl)-1H-imidazo[4,5-c]pyridin-4-amine]",IC50,100 to 1000 nM
